Where two headings read alike, the source gives them in different places.
Key:
[1] = test system: Serratia marcescens expressing IMP-1 (CL5741); assay: Antibiotic potentiation activity: synergistic concentration (MITC95) with imipenem, OD600 growth; type: cell-based
Summary of the method: (§1)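 Test compound was combined with 4 μg/ml imipenem (or optionally 1 μg/ml), or with no antibiotic, against saline-suspended colonies diluted 1:100 in 1.1×CAMHB. Strains were E. coli NDM-1, S. marcescens IMP-1 and K. pneumoniae VIM-1. Plates were incubated 22–24 h at 35 °C before absorbance (OD600) readout.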

[2] = test system: Klebsiella pneumoniae expressing VIM-1 (IHMA599644); assay: as above; type: cell-based
Summary of the method: as §1

[3] = test system: Escherichia coli expressing NDM-1 (CLB30016); assay: as above; type: cell-based
Summary of the method: as §1

NDM-1 = NDM-1 (Klebsiella pneumoniae, UniProt C7C422); assay: biochemical; type: biochemical; conditions: read-out: NDM-1 IC50
IMP-1 = IMP-1 (Serratia marcescens, UniProt P52699); assay: biochemical; type: biochemical; conditions: read-out: IMP-1 IC50
VIM-1 = VIM-1 (Pseudomonas aeruginosa (strain ATCC 15692 / DSM 22644 / CIP 104116 / JCM 14847 / LMG 12228 / 1C / PRS 101 / PAO1), UniProt A0A0F7KYQ8); assay: Enzyme activity: determination of IC50, fluorescence assay with CCF2-FA substrate (VIM-1); type: biochemical
[4] = Serratia marcescens CL5741 (IMP-1), 95% growth inhibition
[5] = Klebsiella pneumoniae IHMA599644 (VIM-1), 95% growth inhibition
[6] = (CLB30016, NDM-1), 95% growth inhibition
[7] = NDM-1 enzyme, CCF2-FA substrate
[8] = IMP-1 enzyme, CCF2-FA substrate
[9] = VIM-1 enzyme, CCF2-FA substrate, read-out: VIM-1 IC50
[10] = CL5741 (IMP-1), 95% inhibition of bacterial growth
[11] = IHMA599644 (VIM-1), 95% inhibition of bacterial growth
[12] = CLB30016 (NDM-1), 95% inhibition of bacterial growth
[13] = fluorescence assay with CCF2-FA substrate
[14] = fluorescence assay with CCF2-FA substrate, read-out: VIM-1 IC50
[15] = VIM-1 IC50, VIM-1 enzyme, CCF2-FA substrate
[16] = Serratia marcescens expressing IMP-1 (CL5741), 95% growth inhibition
[17] = Klebsiella pneumoniae expressing VIM-1 (IHMA599644), 95% growth inhibition
[18] = Escherichia coli expressing NDM-1 (CLB30016), 95% growth inhibition
[19] = NDM-1 enzyme, CCF2-FA fluorescence assay
[20] = IMP-1 enzyme, CCF2-FA fluorescence assay
[21] = VIM-1 enzyme, CCF2-FA fluorescence assay, read-out: VIM-1 IC50

Chain of NDM-1 (C7C422 whole entry, looked up, species assumed): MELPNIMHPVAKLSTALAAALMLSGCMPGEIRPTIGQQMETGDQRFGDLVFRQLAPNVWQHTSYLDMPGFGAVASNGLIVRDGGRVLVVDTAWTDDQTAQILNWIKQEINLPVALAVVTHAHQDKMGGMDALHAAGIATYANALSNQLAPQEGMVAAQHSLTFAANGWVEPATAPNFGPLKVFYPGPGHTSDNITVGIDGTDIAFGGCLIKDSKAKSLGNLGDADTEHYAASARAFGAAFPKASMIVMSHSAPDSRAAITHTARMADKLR
Chain of IMP-1 (P52699 whole entry, looked up): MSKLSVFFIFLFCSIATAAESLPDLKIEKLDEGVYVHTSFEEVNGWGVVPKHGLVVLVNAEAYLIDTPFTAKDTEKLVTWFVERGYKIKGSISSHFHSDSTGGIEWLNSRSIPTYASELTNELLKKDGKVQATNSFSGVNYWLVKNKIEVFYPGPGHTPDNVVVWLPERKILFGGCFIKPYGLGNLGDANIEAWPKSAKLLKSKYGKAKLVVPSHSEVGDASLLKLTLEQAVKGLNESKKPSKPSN

| SMILES | Serratia marcescens MITC95 [1, 4] [µM] | Klebsiella pneumoniae MITC95 [2, 5] [µM] | Escherichia coli MITC95 [3, 6] [µM] | IC50 (NDM-1; [7]) [nM] | IC50 (IMP-1; [8]) [nM] | IC50 (VIM-1; [9]) [nM] | Serratia marcescens MITC95 [1, 16] [µM] | Klebsiella pneumoniae MITC95 [2, 17] [µM] | Escherichia coli MITC95 [3, 18] [µM] | IC50 (NDM-1; [19]) [nM] | IC50 (IMP-1; [20]) [nM] | IC50 (VIM-1; [21]) [nM] | other results |
| --- | --- | --- | --- | --- | --- | --- | --- | --- | --- | --- | --- | --- | --- |
| NCC1CCC(N[C@H]2CC[C@H](c3ccc(C(F)(F)F)c(S(N)(=O)=O)c3-c3nnn[nH]3)CC2)CC1 (stereo partly drawn) [Example 704, 3-(4-{[4-(aminomethyl)cyclohexyl]amino}cyclohexyl)-2-(1H-tetrazol-5-yl)-6-(trifluoromethyl)benzene sulfonamide] | 6.25 | 6.25 | 1.563 | 14.8 | 51.6 | 7.17 |  |  |  |  |  |  |  |
| NS(=O)(=O)c1c(C(F)(F)F)ccc([C@H]2CC[C@H](C3CCNCC3)CC2)c1-c1nnn[nH]1 [Example 832, 3-((1r,4r)-4-(piperidin-4-yl)cyclohexyl)-2-(1H-tetrazol-5-yl)-6-(trifluoromethyl)benzenesulfonamide] |  |  |  |  |  |  |  |  |  |  |  |  | Serratia marcescens MITC95 [1, 10]: 3.125 µM; Klebsiella pneumoniae MITC95 [2, 11]: 4.688 µM; Escherichia coli MITC95 [3, 12]: 1.563 µM; IC50 (NDM-1; [13]): 0.501 nM; IC50 (IMP-1; [13]): 1.46 nM; IC50 (VIM-1; [14]): 0.212 nM |
| NCCCc1ccc(-c2ccc(C(F)(F)F)c(S(N)(=O)=O)c2-c2nnn[nH]2)cc1 [Example 735, 4′-(3-aminopropyl)-2-(1H-tetrazol-5-yl)-4-(trifluoromethyl)biphenyl-3-sulfonamide] | 3.125 | 6.25 | 3.125 | 3.03 | 1.7 | 0.388 |  |  |  |  |  |  |  |
| NC(=O)c1cc2cccc(-c3ccc(C(F)(F)F)c(S(N)(=O)=O)c3-c3nn[nH]n3)c2[nH]1 [Example 528, 7-(3-Sulfamoyl-2-(2H-tetrazol-5-yl)-4-(trifluoromethyl)phenyl)-1H-indole-2-carboxamide] | 3.125 | 12.5 | 1.563 | 0.0248 | 0.425 | 0.146 |  |  |  |  |  |  |  |
| NS(=O)(=O)c1c(C[C@H]2CC[C@@H](N)CC2)ccc(-c2ccc(C3CCNC3)cc2)c1-c1nnn[nH]1 (stereo partly drawn) [Example 583, 4-(((1s,4s)-4-aminocyclohexyl)methyl)-4′-(pyrrolidin-3-yl)-2-(1H-tetrazol-5-yl)-[1,1′-biphenyl]-3-sulfonamide] | 6.25 | 6.25 | 3.125 | 6.53 | 12 | 23.6 |  |  |  |  |  |  |  |
| NS(=O)(=O)c1cccc(-c2ccc(N3CCC3CO)nc2)c1-c1nnn[nH]1 (stereo in doubt) [Example 636, 3-[6-[(2S)-2-(hydroxymethyl)azetidin-1-yl]-3-pyridyl]-2-(1H-tetrazol-5-yl)benzenesulfonamide] | 4.688 | >200 | 0.3906 | 1.54 | 37.2 |  |  |  |  |  |  |  | IC50 (VIM-1; [15]): 88.9 nM |
| CC(C)c1ccc(C(F)(F)F)c(S(N)(=O)=O)c1-c1nnn[nH]1 [Example 488, 3-isopropyl-2-(1H-tetrazol-5-yl)-6-(trifluoromethyl)benzenesulfonamide] |  |  |  |  |  |  | 0.7813 | 4.688 | 1.563 | 7.9 | 18.8 | 3.44 |  |
| N=C(N)N[C@H]1CC[C@H](c2ccc(C(F)(F)F)c(S(N)(=O)=O)c2-c2nnn[nH]2)CC1 [Example 823, 1-[4-[3-sulfamoyl-2-(1H-tetrazol-5-yl)-4-(trifluoromethyl)phenyl]cyclohexyl] guanidine] |  |  |  |  |  |  |  |  |  |  |  |  | Serratia marcescens MITC95 [1, 10]: 0.3906 µM; Klebsiella pneumoniae MITC95 [2, 11]: 1.172 µM; Escherichia coli MITC95 [3, 12]: 1.172 µM; IC50 (NDM-1; [13]): 17.5 nM; IC50 (IMP-1; [13]): 25.4 nM; IC50 (VIM-1; [14]): 0.666 nM |
| NS(=O)(=O)c1c(C(F)(F)F)ccc(-c2ccc(C3CN(C4CCNCC4)C3)cc2)c1-c1nnn[nH]1 [Example 802, 4′-(1-piperidin-4-ylazetidin-3-yl)-2-(1H-tetrazol-5-yl)-4-(trifluoromethyl)biphenyl-3-sulfonamide] |  |  |  |  |  |  |  |  |  |  |  |  | Serratia marcescens MITC95 [1, 10]: 6.25 µM; Klebsiella pneumoniae MITC95 [2, 11]: 100 µM; Escherichia coli MITC95 [3, 12]: 6.25 µM; IC50 (NDM-1; [13]): 3.25 nM; IC50 (IMP-1; [13]): 4.27 nM; IC50 (VIM-1; [14]): 17.2 nM |
| NS(=O)(=O)c1c(C(F)(F)F)ccc(-c2ccc(C(O)C3CCNCC3)cc2)c1-c1nnn[nH]1 (stereo not drawn) [Example 738, 4′-[hydroxy(piperidin-4-yl)methyl]-2-(1H-tetrazol-5-yl)-4-(trifluoromethyl)biphenyl-3-sulfonamide] | 6.25 | 50 | 3.125 | 1.28 | 2.28 |  |  |  |  |  |  |  | IC50 (VIM-1; [15]): 3.41 nM |
| NS(=O)(=O)c1c(C(F)(F)F)ccc(-c2cccc3c[n+]([O-])ccc23)c1-c1nn[nH]n1 [Example 516, 5-(3-Sulfamoyl-2-(2H-tetrazol-5-yl)-4-(trifluoromethyl)phenyl)isoquinoline 2-oxide] | 0.7813 | 6.25 | 6.25 | 2.4 | 12.6 | 0.277 |  |  |  |  |  |  |  |
| NS(=O)(=O)c1c(C(F)(F)F)ccc(-c2ccc(OC3CNC3)cc2)c1-c1nnn[nH]1 [Example 719, 4′-(azetidin-3-yloxy)-2-(1H-tetrazol-5-yl)-4-(trifluoromethyl)biphenyl-3-sulfonamide] | 3.125 | 3.125 | 3.125 | 3.04 | 3.68 |  |  |  |  |  |  |  | IC50 (VIM-1; [15]): 0.553 nM |
| Nc1nc2cc(F)cc(-c3ccc(C(F)(F)F)c(S(N)(=O)=O)c3-c3nnn[nH]3)c2[nH]1 [Example 566, 3-(2-amino-5-fluoro-1H-benzo[d]imidazol-7-yl)-2-(1H-tetrazol-5-yl)-6-(trifluoromethyl)benzenesulfonamide] | 3.125 | 3.125 | 0.7813 | 0.233 | 2.68 | 0.508 |  |  |  |  |  |  |  |
| NS(=O)(=O)c1c(C(F)(F)F)ccc(-c2ccc(C3CCN(CCC4CCNCC4)CC3)cc2)c1-c1nnn[nH]1 [Example 793, 4′-[1-(2-piperidin-4-ylethyl)piperidin-4-yl]-2-(1H-tetrazol-5-yl)-4-(trifluoromethyl)biphenyl-3-sulfonamide] |  |  |  |  |  |  |  |  |  |  |  |  | Serratia marcescens MITC95 [1, 10]: 3.125 µM; Klebsiella pneumoniae MITC95 [2, 11]: 25 µM; Escherichia coli MITC95 [3, 12]: 1.563 µM; IC50 (NDM-1; [13]): 7 nM; IC50 (IMP-1; [13]): 1.02 nM; IC50 (VIM-1; [14]): 4.66 nM |
| NS(=O)(=O)c1cccc(-c2ccc3nccnc3c2)c1-c1nnn[nH]1 [Example 405, 3-quinoxalin-6-yl-2-(1H-tetrazol-5-yl)benzenesulfonamide] |  |  |  |  |  |  | 1.563 | 62.5 | 1.563 | 4.23 | 67.6 | 16.9 |  |
| NS(=O)(=O)c1cccc(-c2cnc3n2CCCC3)c1-c1nnn[nH]1 [Example 419, 3-(5,6,7,8-tetrahydroimidazo[1,2-a]pyridin-3-yl)-2-(1H-tetrazol-5-yl)benzenesulfonamide] |  |  |  |  |  |  | 25 | 25 | 0.25 | 51.9 | 1040 | 469 |  |
| NS(=O)(=O)c1cccc(-c2cc3ccncc3s2)c1-c1nnn[nH]1 [Example 410, 2-(1H-tetrazol-5-yl)-3-thieno[2,3-c]pyridin-2-yl-benzenesulfonamide] |  |  |  |  |  |  | 3.125 | 18.75 | 0.5859 | 4.11 | 107 | 19.2 |  |
| NS(=O)(=O)c1cccc(-c2ccc(CN3CC(F)(F)C3)cc2)c1-c1nnn[nH]1 [Example 372, 4′-[(3,3-difluoroazetidin-1-yl)methyl]-2-(1H-tetrazol-5-yl)biphenyl-3-sulfonamide] |  |  |  |  |  |  | 1.563 | >200 | 7.813 | 4.91 | 15.7 | 470 |  |
| CS(=O)(=O)Nc1ccc(-c2ccc(C(F)(F)F)c(S(N)(=O)=O)c2-c2nn[nH]n2)cc1 [Example 274, 4′-(methylsulfonamido)-2-(2H-tetrazol-5-yl)-4-(trifluoromethyl)-[1,1′-biphenyl]-3-sulfonamide] |  |  |  |  |  |  | 0.1953 | 4.688 | 0.7813 | 0.637 | 0.637 | 0.637 |  |

From US9708336B2, “Metallo-beta-lactamase inhibitors” (priority 2014, dated 2017)
